One may read the IC50 as the concentration needed to halve the response being measured.

The target of one assay is CDK2/CycA2 (Homo sapiens, UniProt P24941). Nature of the assay: CDK2 mobility shift assay (enzymatic activity of CDK2/CycA2). The assay is classed as biochemical. The following applies: 1.25 nM CDK2/CycA2, 37 μM ATP, FL Peptide 18, 120 min at room temperature; read-out: CDK2 IC50. The procedure, abridged: (§1)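 Carna CDK5/p25 (0.154 nM) or CDK2/CycA2 (1.25 nM) was preincubated 30 min with compound, ATP ([…] for CDK5; 37 μM for CDK2) and 10 mM MgCl2 in HEPES pH 7.5. The reaction was started with 1.5 μM FL peptide (29 for CDK5, 18 for CDK2) and run 60 min (CDK5) or 120 min (CDK2) at room temperature. Product was read by mobility shift, with IC50 from a 4-parameter fit.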

The target of a further assay is CDK5/p25 (Homo sapiens, UniProt Q00535). The assay can be described thus: CDK5 mobility shift assay (enzymatic activity of CDK5/p25). The class given is biochemical. The following applies: for IC50: 0.154 nM CDK5/p25, FL peptide 29, 60 min at room temperature, read-out: CDK5 IC50; for CDK5/CDK2 specificity: fold more active against CDK5 than CDK2. In short, it runs like this:
as §1

Chain of CDK5/p25 (Q00535 whole entry): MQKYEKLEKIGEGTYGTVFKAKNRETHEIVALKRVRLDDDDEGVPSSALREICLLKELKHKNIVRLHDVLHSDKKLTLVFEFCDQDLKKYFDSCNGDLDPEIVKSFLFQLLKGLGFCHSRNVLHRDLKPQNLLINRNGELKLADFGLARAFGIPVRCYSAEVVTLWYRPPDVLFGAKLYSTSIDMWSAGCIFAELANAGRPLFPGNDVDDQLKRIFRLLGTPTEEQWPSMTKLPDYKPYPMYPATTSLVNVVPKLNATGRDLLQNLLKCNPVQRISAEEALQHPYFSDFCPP
Chain of CDK5/p25 (Q15078 99-307 partner limits assumed): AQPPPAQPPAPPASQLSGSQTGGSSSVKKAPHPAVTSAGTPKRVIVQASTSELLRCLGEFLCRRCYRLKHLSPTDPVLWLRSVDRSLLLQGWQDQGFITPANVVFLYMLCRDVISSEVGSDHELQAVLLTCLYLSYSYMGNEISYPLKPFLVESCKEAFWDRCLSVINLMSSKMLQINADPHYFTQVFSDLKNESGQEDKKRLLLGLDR

For `CN1CCC(C2(c3ccc4cnc(Nc5ccc(-n6cccn6)cc5F)cc4n3)CCO2)CC1` (stereo not drawn) [Compound 365, N-(2-fluoro-4-(1H-pyrazol-1-yl)phenyl)-2-(2-(1-methylpiperidin-4-yl)oxetan-2-yl)-1,6-naphthyridin-7-amine], the IC50 on CDK2/CycA2 is 100 to 1000 nM. At CDK5/p25, the half-inhibitory concentration (IC50) was 10 to 100 nM; the CDK5/CDK2 specificity result is “++ (greater than 10-fold and less than or equal to 100-fold more active against CDK5 than CDK2)”.
`CN1CCC(C(C)(O)c2ccc3cnc(Nc4ccc(-n5cccn5)cc4F)cc3n2)CC1` (single isomer, unassigned) [Compound 205, 1-(7-[[2-fluoro-4-(pyrazol-1-yl)phenyl]amino]-1,6-naphthyridin-2-yl)-1-(1-methylpiperidin-4-yl)ethanol]: on CDK2/CycA2, the IC50 is above 1000 nM. Besides, at CDK5/p25, the IC50 lay in the range of 100 to 1000 nM; the CDK5/CDK2 specificity result was “++ (greater than 10-fold and less than or equal to 100-fold more active against CDK5 than CDK2)”.
Regarding `CN1CCC2(CC1)CC2c1ccc2cnc(Nc3ccc(-n4cccn4)cc3F)cc2n1` (stereo not drawn) [Compound 164, N-[2-fluoro-4-(pyrazol-1-yl)phenyl]-2-[6-methyl-6-azaspiro[2.5]octan-1-yl]-1,6-naphthyridin-7-amine], on CDK2/CycA2, the IC50 is above 1000 nM. In addition, at CDK5/p25, the IC50 is 100 to 1000 nM; the CDK5/CDK2 specificity entry was “++ (greater than 10-fold and less than or equal to 100-fold more active against CDK5 than CDK2)”.
In the case of `CN1CCC(S(=O)(=O)c2ccc3cnc(Nc4ccc(Cn5cncn5)cc4)cc3n2)CC1` [Compound 263], the IC50 was 10 to 100 nM at CDK2/CycA2 and below 10 nM at CDK5/p25. The CDK5/CDK2 specificity entry at CDK5/p25 is “++ (greater than 10-fold and less than or equal to 100-fold more active against CDK5 than CDK2)”.
In the case of `C=C(c1ccc2cnc(Nc3ccc(-n4ccc(CO)n4)cc3F)cc2n1)C1CCN(C)CC1` [Compound 168, [1-[3-fluoro-4-([2-[1-(1-methylpiperidin-4-yl)ethenyl]-1,6-naphthyridin-7-yl]amino)phenyl]pyrazol-3-yl]methanol], the IC50 at CDK2/CycA2 was 100 to 1000 nM; on CDK5/p25, below 10 nM. Moreover, the CDK5/CDK2 specificity entry at CDK5/p25 is “+++ (greater than 100-fold more active against CDK5 than CDK2)”.
Regarding `CN1CCC(C(C)(O)c2ccc3cnc(Nc4ccc(-c5cccc(C#N)c5)cc4F)cc3n2)CC1` (stereo not drawn) [Compound 337], the IC50 on CDK2/CycA2 was above 1000 nM. For the same compound, at CDK5/p25, the IC50 was 100 to 1000 nM; the CDK5/CDK2 specificity result is “++ (greater than 10-fold and less than or equal to 100-fold more active against CDK5 than CDK2)”.
Turning to `CN1CCC(S(=O)(=O)c2ccc3cnc(Nc4ccc(-c5cncnc5)cc4F)cc3n2)CC1` [Compound 293], the IC50 on CDK2/CycA2 is 100 to 1000 nM; on CDK5/p25, below 10 nM. Also, the CDK5/CDK2 specificity result on CDK5/p25 is reported as “+++ (greater than 100-fold more active against CDK5 than CDK2)”.
Regarding `CN1CCC(O)(C(O)c2ccc3cnc(Nc4ccc(-n5cccn5)cc4F)cc3n2)CC1` (stereo not drawn) [Compound 240, 4-[(7-[[2-fluoro-4-(pyrazol-1-yl)phenyl]amino]-1,6-naphthyridin-2-yl) (hydroxy)methyl]-1-methylpiperidin-4-ol], the IC50 at CDK2/CycA2 was above 1000 nM; at CDK5/p25 it was 100 to 1000 nM. Further, at CDK5/p25, the CDK5/CDK2 specificity entry is “++ (greater than 10-fold and less than or equal to 100-fold more active against CDK5 than CDK2)”.
As for `COc1ccc(-c2ccc(Nc3cc4nc(S(=O)(=O)C5CCN(CC6COC6)CC5)ccc4cn3)c(F)c2)cc1` [Compound 331], the IC50 at CDK2/CycA2 was 100 to 1000 nM; at CDK5/p25 it was below 10 nM. The CDK5/CDK2 specificity result on CDK5/p25 is “++ (greater than 10-fold and less than or equal to 100-fold more active against CDK5 than CDK2)”.
Take `O=S(=O)(c1ccc2cnc(Nc3ccc(-n4ccc(CO)n4)cc3F)cc2n1)C1CCN(CC(O)CO)CC1` (stereo not drawn) [Compound 253]: the IC50 at CDK2/CycA2 lay within 100 to 1000 nM. For the same compound, on CDK5/p25, the IC50 lay in the range of 10 to 100 nM; the CDK5/CDK2 specificity entry is “++ (greater than 10-fold and less than or equal to 100-fold more active against CDK5 than CDK2)”.
On to `COc1ccc(-c2ccc(Nc3cc4nc(C(C)C5CCN(C)CC5)ccc4cn3)c(F)c2)cc1` (stereo not drawn) [Compound 310], for which the IC50 on CDK2/CycA2 was above 1000 nM; at CDK5/p25 it was 10 to 100 nM. For the same compound, on CDK5/p25, the CDK5/CDK2 specificity entry was “++ (greater than 10-fold and less than or equal to 100-fold more active against CDK5 than CDK2)”.
As to `CNC(=O)c1ccc(Nc2cc3nc(S(=O)(=O)C4CCN(C)CC4)ccc3cn2)cc1` [Compound 268], the IC50 on CDK2/CycA2 was in the range of 100 to 1000 nM. For the same compound, at CDK5/p25, the IC50 was below 10 nM; the CDK5/CDK2 specificity entry was “++ (greater than 10-fold and less than or equal to 100-fold more active against CDK5 than CDK2)”.
Take `CN1CCC(S(=O)(=O)c2ccc3cnc(Nc4ccc5c(c4)C(=O)NCC5)cc3n2)CC1` [Compound 278]: the IC50 at CDK2/CycA2 lay in the range of 100 to 1000 nM. Moreover, at CDK5/p25, the IC50 is below 10 nM; the CDK5/CDK2 specificity entry is “++ (greater than 10-fold and less than or equal to 100-fold more active against CDK5 than CDK2)”.
`CN1CCC(C(C)(O)c2ccc3cnc(Nc4ccc(-c5cccc(=O)[nH]5)cc4F)cc3n2)CC1` (stereo not drawn) [Compound 393]: the IC50 on CDK2/CycA2 is 10 to 100 nM. For the same compound, at CDK5/p25, the IC50 is below 10 nM; the CDK5/CDK2 specificity result is “++ (greater than 10-fold and less than or equal to 100-fold more active against CDK5 than CDK2)”.
On to `CN1CCC([C@@](C)(O)c2ccc3cnc(Nc4ccc(-c5cc[nH]n5)cc4F)cc3n2)CC1` [Compound 414, (1R)-1-(7-[[2-fluoro-4-(1H-pyrazol-3-yl)phenyl]amino]-1,6-naphthyridin-2-yl)-1-(1-methylpiperidin-4-yl)ethanol], for which the IC50 was 10 to 100 nM at CDK2/CycA2 and below 10 nM at CDK5/p25. Besides, the CDK5/CDK2 specificity result on CDK5/p25 is “++ (greater than 10-fold and less than or equal to 100-fold more active against CDK5 than CDK2)”.
Take `NC(=O)c1cccc(-c2ccc(Nc3cc4nc(S(=O)(=O)C5CCN(CC6COC6)CC5)ccc4cn3)c(F)c2)c1` [Compound 326]: the IC50 at CDK2/CycA2 is 100 to 1000 nM. Moreover, at CDK5/p25, the IC50 was below 10 nM and the CDK5/CDK2 specificity result was “+++ (greater than 100-fold more active against CDK5 than CDK2)”.
In the case of `COC(=O)CN(c1ccc2cnc(Nc3ccc(-n4ccc(CO)n4)cc3F)cc2n1)C1CCNCC1` [Compound 112, Methyl 2-[[7-([2-fluoro-4-[3-(hydroxymethyl)pyrazol-1-yl]phenyl]amino)-1,6-naphthyridin-2-yl](piperidin-4-yl)amino]acetate], on CDK2/CycA2, the IC50 was above 1000 nM. Moreover, at CDK5/p25, the IC50 fell in the range of 100 to 1000 nM; the CDK5/CDK2 specificity entry was “++ (greater than 10-fold and less than or equal to 100-fold more active against CDK5 than CDK2)”.
Regarding `CN1CCC(S(=O)(=O)c2ccc3cnc(Nc4ccccc4)cc3n2)CC1` [Compound 385], the IC50 at CDK2/CycA2 is 10 to 100 nM. Moreover, at CDK5/p25, the IC50 was below 10 nM; the CDK5/CDK2 specificity result was “++ (greater than 10-fold and less than or equal to 100-fold more active against CDK5 than CDK2)”.
As for `CN1CCC(S(=O)(=O)c2ccc3cnc(Nc4ccc(N5CCS(=O)(=O)CC5)cc4)cc3n2)CC1` [Compound 296], the IC50 at CDK2/CycA2 was in the range of 10 to 100 nM. Besides, at CDK5/p25, the IC50 was below 10 nM; the CDK5/CDK2 specificity entry is “++ (greater than 10-fold and less than or equal to 100-fold more active against CDK5 than CDK2)”.
As to `Cc1cccc(Nc2cc3nc(S(=O)(=O)C4CCN(C)CC4)ccc3cn2)c1` [Compound 382], the IC50 was 10 to 100 nM at CDK2/CycA2 and below 10 nM at CDK5/p25. On CDK5/p25, the CDK5/CDK2 specificity entry is reported as “+++ (greater than 100-fold more active against CDK5 than CDK2)”.
For the compound `COC(=O)CCc1nnc(Nc2cc3nc(S(=O)(=O)C4CCN(C)CC4)ccc3cn2)s1` [Compound 264], the IC50 on CDK2/CycA2 is above 1000 nM. For the same compound, at CDK5/p25, the IC50 is above 1000 nM and the CDK5/CDK2 specificity result is “+ (10-fold or less more active against CDK5 than CDK2)”.
For `CN1CCC(C(O)c2ccc3cnc(Nc4ccc(-n5cccn5)cc4F)cc3n2)CC1` (single isomer, unassigned) [Compound 175, (7-[[2-fluoro-4-(pyrazol-1-yl)phenyl]amino]-1,6-naphthyridin-2-yl) (1-methylpiperidin-4-yl)methanol], the figures for the IC50 at CDK2/CycA2 and at CDK5/p25 were 100 to 1000 nM and below 10 nM, respectively. Moreover, at CDK5/p25, the CDK5/CDK2 specificity entry is “+++ (greater than 100-fold more active against CDK5 than CDK2)”.
As to `CC(c1ccc2cnc(Nc3ccc(-n4cccn4)cc3F)cc2n1)C1CCN(C)CC1` (stereo not drawn) [Compound 386], the IC50 at CDK2/CycA2 fell in the range of 100 to 1000 nM. For the same compound, on CDK5/p25, the IC50 is below 10 nM; the CDK5/CDK2 specificity entry is “++ (greater than 10-fold and less than or equal to 100-fold more active against CDK5 than CDK2)”.
With `CN1CCC(S(=O)(=O)c2ccc3cnc(Nc4ccc5oc(=O)ccc5c4)cc3n2)CC1` [Compound 272], the IC50 on CDK2/CycA2 was 100 to 1000 nM; on CDK5/p25, below 10 nM. For the same compound, the CDK5/CDK2 specificity entry at CDK5/p25 is “++ (greater than 10-fold and less than or equal to 100-fold more active against CDK5 than CDK2)”.
For `Nc1cccc(C(=O)Nc2cc3nc(SC4CCNCC4)ccc3cn2)c1` [Compound 136, 3-amino-N-[2-(piperidin-4-ylsulfanyl)-1,6-naphthyridin-7-yl]benzamide], the IC50 at CDK2/CycA2 lay in the range of 100 to 1000 nM. In addition, on CDK5/p25, the IC50 fell in the range of 100 to 1000 nM and the CDK5/CDK2 specificity result is “+ (10-fold or less more active against CDK5 than CDK2)”.
Regarding `COC(c1ccc2cnc(Nc3ccc(-n4cccn4)cc3F)cc2n1)C1CCN(C)CC1` (single isomer, unassigned) [Compound 391, N-[2-fluoro-4-(pyrazol-1-yl)phenyl]-2-[methoxy(1-methylpiperidin-4-yl)methyl]-1,6-naphthyridin-7-amine], on CDK2/CycA2, the IC50 was above 1000 nM. Further, on CDK5/p25, the IC50 lay in the range of 100 to 1000 nM; the CDK5/CDK2 specificity entry was “++ (greater than 10-fold and less than or equal to 100-fold more active against CDK5 than CDK2)”.

The values above are taken from patent US20220389009A1, “SUBSTITUTED 1,6-NAPHTHYRIDINE INHIBITORS OF CDK5” (Goldfinch Bio, Inc., priority 2019, published 2022).
